According to PubChem BioAssay AID256 (DTP/NCI, 2004):
Where “and” joins values, the source holds several entries; their conditions need not be identical. Identical values can stand only once. Toxic doses and inconclusive results are not listed. Rule for the calls: active = survival T/C of 150% or more; inactive = T/C below 125% in these data.

System: CD2F1 mice, L1210 leukemia ip, survival T/C
Assay: NCI In Vivo Anticancer Drug Screen. Data for tumor model L1210 Leukemia (intraperitoneal) in CD2F1 (CDF1) mice
Settings: higher = longer survival
Procedure, shortened: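 Read-out first: treated-group measurement over vehicle-control measurement, expressed as a ratio. Animals bore a transplanted tumor line and were dosed with compound or vehicle.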

[1] = endpoint: mean survival time, dose: 100.0 mg/kg/injection, schedule: Q04DX003 (ip), vehicle: saline with Tween-80
[2] = endpoint: mean survival time, dose: 200.0 mg/kg/injection, schedule: Q04DX003 (ip), vehicle: saline with Tween-80
[3] = endpoint: mean survival time, dose: 100.0 mg/kg/injection, schedule: Q01DX001 (ip), vehicle: saline with Tween-80
[4] = endpoint: mean survival time, dose: 400.0 mg/kg/injection, schedule: Q01DX001 (ip), vehicle: saline with Tween-80
[5] = endpoint: mean survival time, dose: 100.0 mg/kg/injection, schedule: Q01DX009 (ip), vehicle: saline with Tween-80
[6] = endpoint: mean survival time, dose: 200.0 mg/kg/injection, schedule: Q01DX009 (ip), vehicle: saline with Tween-80
[7] = endpoint: mean survival time, dose: 400.0 mg/kg/injection, schedule: Q01DX009 (ip), vehicle: saline with Tween-80
[8] = endpoint: mean survival time, dose: 400.0 mg/kg/injection, schedule: Q04DX003 (ip), vehicle: saline with Tween-80
[9] = endpoint: mean survival time, dose: 50.0 mg/kg/injection, schedule: Q01DX009 (ip), vehicle: saline with Tween-80
[10] = endpoint: mean survival time, dose: 200.0 mg/kg/injection, schedule: Q01DX001 (ip), vehicle: saline with Tween-80
[11] = endpoint: median survival time, dose: 3.12 mg/kg/injection, schedule: Q01DX009 (ip), vehicle: Klucel (hydroxypropylcellulose) (HPC)
[12] = endpoint: median survival time, dose: 6.25 mg/kg/injection, schedule: Q01DX009 (ip), vehicle: Klucel (hydroxypropylcellulose) (HPC)
[13] = endpoint: median survival time, dose: 12.5 mg/kg/injection, schedule: Q01DX009 (ip), vehicle: Klucel (hydroxypropylcellulose) (HPC)

Measured: T/C

CC(C)CCCC(C)C1CCC2C3CC(CO)C4CC(O)CCC4(C)C3CCC12C (stereo not given)
inactive: [1] 87 % of control | [2] 88 % of control

CC(=O)OC1CCC2(C)C(=CCC3C4CC(C=O)=C(Cl)NC4(C)CCC32)C1 (stereo not given)
inactive: endpoint: mean survival time, dose: 25.0 mg/kg/injection, schedule: Q01DX001 (ip), vehicle: saline with Tween-80 98 % of control | endpoint: mean survival time, dose: 50.0 mg/kg/injection, schedule: Q01DX001 (ip), vehicle: saline with Tween-80 95 % of control | [3] 92 % of control and 101 % of control | [4] 87 % of control

CN(C)c1ccc2c(NCCCCCCNc3ccnc4cc(N(C)C)ccc34)ccnc2c1
inactive: endpoint: median survival time, dose: 1.56 mg/kg/injection, schedule: Q01DX009 (ip), vehicle: distilled water + Tween-80 + alcohol 105 % of control | endpoint: median survival time, dose: 3.12 mg/kg/injection, schedule: Q01DX009 (ip), vehicle: distilled water + Tween-80 + alcohol 104 % of control | endpoint: median survival time, dose: 6.25 mg/kg/injection, schedule: Q01DX009 (ip), vehicle: distilled water + Tween-80 + alcohol 111 % of control

Cc1nc(C)c(Cc2ccccc2O)c(=O)[nH]1
inactive: endpoint: mean survival time, dose: 200.0 mg/kg/injection, schedule: Q01DX001 (ip), vehicle: saline 103 % of control

Cc1ccc(S(=O)(=O)OCC(OS(=O)(=O)c2ccc(C)cc2)C2OC3OC(C)(C)OC3C2OS(=O)(=O)c2ccc(C)cc2)cc1 (stereo not given)
inactive: [5] 103 % of control | [1] 96 % of control | [6] 103 % of control | [2] 87 % of control | [7] 89 % of control | [8] 90 % of control

CN(C)C=Nc1cnc2ccccc2c1
inactive: [1] 95 % of control | [2] 95 % of control | [8] 96 % of control

CCCCC(C#N)(CCCC)C(=O)OCC
inactive: [9] 101 % of control | [5] 91 % of control | [6] 97 % of control

CC(=O)OCC1OC([S-])C(OC(C)=O)C(OC(C)=O)C1OC(C)=O.CC[PH+](CC)CC.CC[PH+](CC)CC.[Au].[Au] (stereo not given)
inactive: endpoint: mean survival time, dose: 0.62 mg/kg/injection, schedule: Q01DX009 (ip), vehicle: Klucel (hydroxypropylcellulose) (HPC) 100 % of control and 102 % of control | endpoint: mean survival time, dose: 1.25 mg/kg/injection, schedule: Q01DX009 (ip), vehicle: Klucel (hydroxypropylcellulose) (HPC) 100 % of control and 104 % of control | endpoint: mean survival time, dose: 2.5 mg/kg/injection, schedule: Q01DX009 (ip), vehicle: Klucel (hydroxypropylcellulose) (HPC) 96 % of control and 102 % of control | endpoint: mean survival time, dose: 5.0 mg/kg/injection, schedule: Q01DX009 (ip), vehicle: Klucel (hydroxypropylcellulose) (HPC) 97 % of control and 98 % of control | endpoint: mean survival time, dose: 10.0 mg/kg/injection, schedule: Q01DX009 (ip), vehicle: Klucel (hydroxypropylcellulose) (HPC) 94 % of control and 97 % of control

N#CSCc1ccc(Cl)cc1Cl
inactive: [9] 103 % of control | [5] 101 % of control | [6] 96 % of control

c1ccc2cc(N=NNc3ccc4ccccc4c3)ccc2c1
inactive: [9] 94 % of control | [5] 98 % of control | [1] 95 % of control | [6] 100 % of control | [2] 92 % of control

O=C(/C=C\c1ccccc1)C(=O)/C=C/c1ccccc1
inactive: [1] 94 % of control | [2] 93 % of control | [8] 95 % of control

COC[C@H]1OC(=O)c2coc3c2[C@@]1(C)C1=C(C3=O)[C@@H]2CCC(=O)[C@@]2(C)C[C@H]1OC(C)=O
inactive: endpoint: mean survival time, dose: 0.16 mg/kg/injection, schedule: Q01DX009 (ip), vehicle: saline 102 % of control | endpoint: mean survival time, dose: 0.31 mg/kg/injection, schedule: Q01DX009 (ip), vehicle: saline 98 % of control | endpoint: mean survival time, dose: 0.63 mg/kg/injection, schedule: Q01DX009 (ip), vehicle: saline 102 % of control | endpoint: mean survival time, dose: 1.25 mg/kg/injection, schedule: Q01DX009 (ip), vehicle: saline with Tween-80 86 % of control | endpoint: mean survival time, dose: 1.25 mg/kg/injection, schedule: Q01DX009 (ip), vehicle: saline 110 % of control

N#CN=[N+]([O-])c1ccc(C(=O)O)cc1
inactive: endpoint: mean survival time, dose: 1.87 mg/kg/injection, schedule: Q01DX009 (ip), vehicle: Klucel (hydroxypropylcellulose) (HPC) 106 % of control | endpoint: mean survival time, dose: 3.75 mg/kg/injection, schedule: Q01DX009 (ip), vehicle: Klucel (hydroxypropylcellulose) (HPC) 95 % of control | endpoint: mean survival time, dose: 7.5 mg/kg/injection, schedule: Q01DX009 (ip), vehicle: Klucel (hydroxypropylcellulose) (HPC) 95 % of control | endpoint: mean survival time, dose: 15.0 mg/kg/injection, schedule: Q01DX009 (ip), vehicle: Klucel (hydroxypropylcellulose) (HPC) 96 % of control | endpoint: mean survival time, dose: 30.0 mg/kg/injection, schedule: Q01DX009 (ip), vehicle: Klucel (hydroxypropylcellulose) (HPC) 98 % of control | endpoint: mean survival time, dose: 60.0 mg/kg/injection, schedule: Q01DX009 (ip), vehicle: Klucel (hydroxypropylcellulose) (HPC) 106 % of control | endpoint: median survival time, dose: 1.87 mg/kg/injection, schedule: Q01DX009 (ip), vehicle: Klucel (hydroxypropylcellulose) (HPC) 101 % of control | endpoint: median survival time, dose: 3.75 mg/kg/injection, schedule: Q01DX009 (ip), vehicle: Klucel (hydroxypropylcellulose) (HPC) 95 % of control | endpoint: median survival time, dose: 7.5 mg/kg/injection, schedule: Q01DX009 (ip), vehicle: Klucel (hydroxypropylcellulose) (HPC) 95 % of control | endpoint: median survival time, dose: 15.0 mg/kg/injection, schedule: Q01DX009 (ip), vehicle: Klucel (hydroxypropylcellulose) (HPC) 109 % of control | endpoint: median survival time, dose: 30.0 mg/kg/injection, schedule: Q01DX009 (ip), vehicle: Klucel (hydroxypropylcellulose) (HPC) 93 % of control

O=S(=O)(O)Sc1ccccc1
inactive: endpoint: mean survival time, dose: 25.0 mg/kg/injection, schedule: Q04DX003 (ip), vehicle: saline 97 % of control | endpoint: mean survival time, dose: 50.0 mg/kg/injection, schedule: Q04DX003 (ip), vehicle: saline 97 % of control | endpoint: mean survival time, dose: 100.0 mg/kg/injection, schedule: Q04DX003 (ip), vehicle: saline 98 % of control

CCCCOCN(COCCCC)c1ccccc1
inactive: [3] 109 % of control | [10] 103 % of control | [4] 97 % of control

N#C[Se-].c1ccc([Te+](c2ccccc2)c2ccccc2)cc1
inactive: endpoint: median survival time, dose: 1.56 mg/kg/injection, schedule: Q01DX009 (ip), vehicle: Klucel (hydroxypropylcellulose) (HPC) 109 % of control | [11] 104 % of control | [12] 105 % of control | [13] 103 % of control

O=C(O)CC(=O)O.[NH-]CCC1CCCC[N-]1.[Pt+2] (stereo not given)
inactive: endpoint: mean survival time, dose: 3.13 mg/kg/injection, schedule: Q04DX003 (ip), vehicle: distilled water + Tween-80 111 % of control | endpoint: mean survival time, dose: 6.25 mg/kg/injection, schedule: Q04DX003 (ip), vehicle: distilled water + Tween-80 108 % of control | endpoint: mean survival time, dose: 12.5 mg/kg/injection, schedule: Q04DX003 (ip), vehicle: distilled water + Tween-80 114 % of control | endpoint: mean survival time, dose: 25.0 mg/kg/injection, schedule: Q04DX003 (ip), vehicle: distilled water + Tween-80 114 % of control | endpoint: mean survival time, dose: 25.0 mg/kg/injection, schedule: Q04DX003 (ip), vehicle: water 108 % of control | endpoint: mean survival time, dose: 50.0 mg/kg/injection, schedule: Q04DX003 (ip), vehicle: distilled water + Tween-80 113 % of control | endpoint: mean survival time, dose: 50.0 mg/kg/injection, schedule: Q04DX003 (ip), vehicle: water 120 % of control

C=C(C)CON=C(c1ccccc1)c1ccccc1
inactive: [5] 98 % of control | [6] 96 % of control | [7] 98 % of control

Cc1cc2n[se]nc2cc1C
inactive: [11] 94 % of control | [12] 95 % of control | [13] 98 % of control | endpoint: median survival time, dose: 25.0 mg/kg/injection, schedule: Q01DX009 (ip), vehicle: Klucel (hydroxypropylcellulose) (HPC) 101 % of control

CN(CCC#N)C(=O)Nc1ccc(Cl)cc1
inactive: endpoint: mean survival time, dose: 100.0 mg/kg/injection, schedule: Q04DX002 (ip), vehicle: other 106 % of control | endpoint: mean survival time, dose: 200.0 mg/kg/injection, schedule: Q04DX002 (ip), vehicle: other 101 % of control | endpoint: mean survival time, dose: 400.0 mg/kg/injection, schedule: Q04DX002 (ip), vehicle: other 106 % of control

c1ccc2nc3c(nc2c1)[nH]c1ccccc13
inactive: [3] 100 % of control | [10] 92 % of control | [4] 89 % of control

CN1C2Cc3cc4c(cc3C1Cc1cc3c(cc12)OCO3)OCO4
inactive: endpoint: mean survival time, dose: 75.0 mg/kg/injection, schedule: Q01DX001 (ip), vehicle: saline 100 % of control | endpoint: mean survival time, dose: 150.0 mg/kg/injection, schedule: Q01DX001 (ip), vehicle: saline 94 % of control

CC1=CC(=O)[C@@H](O)[C@]2(C)[C@H]3[C@@]4(O)OC[C@]35[C@H]([C@@H](C)[C@H]4O)[C@@H](OC(=O)c3ccccc3)C(=O)O[C@@H]5C[C@@H]12
inactive: endpoint: mean survival time, dose: 0.25 mg/kg/injection, schedule: Q01DX009 (ip), vehicle: saline with Tween-80 105 % of control | endpoint: mean survival time, dose: 0.5 mg/kg/injection, schedule: Q01DX009 (ip), vehicle: saline with Tween-80 100 % of control | endpoint: mean survival time, dose: 1.0 mg/kg/injection, schedule: Q01DX009 (ip), vehicle: saline with Tween-80 100 % of control | endpoint: mean survival time, dose: 2.0 mg/kg/injection, schedule: Q01DX009 (ip), vehicle: saline with Tween-80 105 % of control
